Test results as given in patent US9486506B2 (Novo Nordisk A/S, priority 2011, dated 2016).
Numbered stars: 1 amine (or outer) side, 2 acyl side, 3 side chain; on linkers, the order of the positions; unused ones are H or OH. Side chains are listed from the residue outwards. Peptide text beside a SMILES is read from it. * marks the point of attachment. C18 diacid = O=C(O)CCCCCCCCCCCCCCCCC(=O)*; γGlu = O=C(O)[C@H](CCC(=O)[*:2])N[*:1]; AEEA = NCCOCCOCC(=O)O

Legend:
[1] = target: T1, glucagon receptor (Homo sapiens, UniProt P47871); test: Assay (I) Glucagon activity (cAMP biosensor, FLIPR); format: cell-based
T1 construct: expressed in transfected cells
T1 sequence (P47871 26-477): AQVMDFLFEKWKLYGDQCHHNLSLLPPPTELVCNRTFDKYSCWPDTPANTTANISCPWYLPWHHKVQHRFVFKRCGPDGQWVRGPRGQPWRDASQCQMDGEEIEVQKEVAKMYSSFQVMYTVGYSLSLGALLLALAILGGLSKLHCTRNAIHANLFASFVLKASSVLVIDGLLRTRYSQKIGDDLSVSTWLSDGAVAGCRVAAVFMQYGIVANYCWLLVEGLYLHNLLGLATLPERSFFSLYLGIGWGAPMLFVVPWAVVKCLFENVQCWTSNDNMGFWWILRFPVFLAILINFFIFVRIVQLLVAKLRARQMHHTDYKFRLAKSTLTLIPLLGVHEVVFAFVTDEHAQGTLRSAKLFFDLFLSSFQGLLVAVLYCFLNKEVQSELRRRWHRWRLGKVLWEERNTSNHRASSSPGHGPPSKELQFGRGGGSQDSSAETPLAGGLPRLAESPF

[2] = Assay (X) Chemical stability assessment by RP-UPLC; format: physicochemical; settings: pH 8.15, 14 days at 37° C. vs 5° C., 333 μM

## CC[C@H](C)[C@H](NC(=O)[C@H](CC(=O)O)NC(=O)[C@H](CC(C)C)NC(=O)[C@H](Cc1ccc(O)cc1)NC(=O)[C@H](CCCNC(=N)N)NC(=O)[C@H](CO)NC(=O)[C@H](Cc1ccc(O)cc1)NC(=O)[C@H](CC(=O)O)NC(=O)[C@H](CO)NC(=O)[C@@H](NC(=O)[C@H](Cc1ccccc1)NC(=O)[C@@H](NC(=O)CNC(=O)[C@H](CCC(N)=O)NC(=O)[C@H](CO)NC(=O)[C@@H](N)Cc1c[nH]cn1)[C@@H](C)O)[C@@H](C)O)C(=O)N[C@@H](CCCNC(=N)N)C(=O)N[C@@H](CCCNC(=N)N)C(=O)N[C@@H](C)C(=O)N[C@@H](CCC(N)=O)C(=O)N[C@@H](CC(=O)O)C(=O)N[C@@H](Cc1ccccc1)C(=O)N[C@H](C(=O)N[C@@H](CCCCNC(=O)CC[C@H](NC(=O)CC[C@H](NC(=O)COCCOCCNC(=O)COCCOCCNC(=O)CC[C@H](NC(=O)CCCCCCCCCCCCCCCCC(=O)O)C(=O)O)C(=O)O)C(=O)O)C(=O)N[C@@H](Cc1c[nH]c2ccccc12)C(=O)N[C@@H](CC(C)C)C(=O)N[C@@H](CC(C)C)C(=O)N[C@@H](CO)C(=O)N[C@H](C(=O)O)[C@@H](C)O)C(C)C [Example 23, N^ε24-[(4S)-4-carboxy-4-[[(4S)-4-carboxy-4-[[2-[2-[2-[[2-[2-[2-[[(4S)-4-carboxy-4-(17-carboxyheptadecanoylamino)butanoyl]amino]ethoxy]ethoxy]acetyl]amino]ethoxy]ethoxy]acetyl]amino]butanoyl]amino]butanoyl]-[Arg^12,Ile^16,Lys^24,Leu^27,Ser^28]-Glucagon] (H-HSQGTFTSDYSRYLDIRRAQDFVK([γGlu-γGlu-AEEA-AEEA-γGlu-C18 diacid])WLLST-OH)
[1]
  EC50: 1.04 nM
[2]
  Chemical stability [Purity loss/14 days 37 C.]: 3.1%

## CC(C)C[C@H](NC(=O)[C@H](CC(=O)O)NC(=O)[C@H](CC(C)C)NC(=O)[C@H](Cc1ccc(O)cc1)NC(=O)[C@H](CCCNC(=N)N)NC(=O)[C@H](CO)NC(=O)[C@H](Cc1ccc(O)cc1)NC(=O)[C@H](CC(=O)O)NC(=O)[C@H](CO)NC(=O)[C@@H](NC(=O)[C@H](Cc1ccccc1)NC(=O)[C@@H](NC(=O)CNC(=O)[C@H](CCC(N)=O)NC(=O)[C@H](CO)NC(=O)[C@@H](N)Cc1c[nH]cn1)[C@@H](C)O)[C@@H](C)O)C(=O)N[C@@H](CCCNC(=N)N)C(=O)N[C@@H](CCCNC(=N)N)C(=O)N[C@@H](C)C(=O)N[C@@H](CCC(N)=O)C(=O)N[C@@H](CC(=O)O)C(=O)N[C@@H](Cc1ccccc1)C(=O)N[C@H](C(=O)N[C@@H](CCCCNC(=O)CC[C@H](NC(=O)CC[C@H](NC(=O)CC[C@H](NC(=O)CCCCCCCCCCCCCCCCC(=O)O)C(=O)O)C(=O)O)C(=O)O)C(=O)N[C@@H](Cc1c[nH]c2ccccc12)C(=O)N[C@@H](CC(C)C)C(=O)N[C@@H](CC(C)C)C(=O)N[C@@H](CO)C(=O)N[C@H](C(=O)O)[C@@H](C)O)C(C)C [Example 29, N^ε24-[(4S)-4-carboxy-4-[[(4S)-4-carboxy-4-[[(4S)-4-carboxy-4-(17-carboxyheptadecanoylamino)butanoyl]amino]butanoyl]amino]butanoyl]-[Arg^12,Leu^16,Lys^24,Leu^27,Ser^28]-Glucagon] (H-HSQGTFTSDYSRYLDLRRAQDFVK([γGlu-γGlu-γGlu-C18 diacid])WLLST-OH)
[1]
  EC50: 1.32 nM
[2]
  Chemical stability [Purity loss/14 days 37 C.]: 2.8%

## CC(C)C[C@H](NC(=O)[C@H](Cc1c[nH]c2ccccc12)NC(=O)[C@H](CCCCNC(=O)CC[C@H](NC(=O)CC[C@H](NC(=O)COCCOCCNC(=O)COCCOCCNC(=O)CC[C@H](NC(=O)CCCCCCCCCCCCCCCCC(=O)O)C(=O)O)C(=O)O)C(=O)O)NC(=O)[C@@H](NC(=O)[C@H](Cc1ccccc1)NC(=O)[C@H](CC(=O)O)NC(=O)[C@H](CCC(N)=O)NC(=O)[C@H](C)NC(=O)[C@H](CCCNC(=N)N)NC(=O)[C@H](CCCNC(=N)N)NC(=O)[C@@H](NC(=O)[C@H](CC(=O)O)NC(=O)[C@H](CC(C)C)NC(=O)[C@H](Cc1ccc(O)cc1)NC(=O)[C@H](CCCCN)NC(=O)[C@H](CO)NC(=O)[C@H](Cc1ccc(O)cc1)NC(=O)[C@H](CC(=O)O)NC(=O)[C@H](CO)NC(=O)[C@@H](NC(=O)[C@H](Cc1ccccc1)NC(=O)[C@@H](NC(=O)CNC(=O)[C@H](CCC(N)=O)NC(=O)[C@H](CO)NC(=O)[C@@H](N)Cc1c[nH]cn1)[C@@H](C)O)[C@@H](C)O)[C@@H](C)O)C(C)C)C(=O)N[C@@H](CC(C)C)C(=O)N[C@@H](CO)C(=O)N[C@H](C(N)=O)[C@@H](C)O [Example 39, N^ε24-[(4S)-4-carboxy-4-[[(4S)-4-carboxy-4-[[2-[2-[2-[[2-[2-[2-[[(4S)-4-carboxy-4-(17-carboxyheptadecanoylamino)butanoyl]amino]ethoxy]ethoxy]acetyl]amino]ethoxy]ethoxy]acetyl]amino]butanoyl]amino]butanoyl]-[Thr16,Lys24,Leu27,Ser28]-Glucagon amide]
[1]
  EC50: 0.039 nM
[2]
  Chemical stability [Purity loss/14 days 37 C.]: 7.8%

## CC(C)C[C@H](NC(=O)[C@H](Cc1c[nH]c2ccccc12)NC(=O)[C@H](CCCCNC(=O)COCCOCCNC(=O)CC[C@H](NC(=O)CC[C@H](NC(=O)COCCOCCNC(=O)CC[C@H](NC(=O)CCCCCCCCCCCCCCCCC(=O)O)C(=O)O)C(=O)O)C(=O)O)NC(=O)[C@@H](NC(=O)[C@H](Cc1ccccc1)NC(=O)[C@H](CC(=O)O)NC(=O)[C@H](CCC(N)=O)NC(=O)[C@H](C)NC(=O)[C@H](CCCNC(=N)N)NC(=O)[C@H](CCCNC(=N)N)NC(=O)[C@@H](NC(=O)[C@H](CC(=O)O)NC(=O)[C@H](CC(C)C)NC(=O)[C@H](Cc1ccc(O)cc1)NC(=O)[C@H](CCCCN)NC(=O)[C@H](CO)NC(=O)[C@H](Cc1ccc(O)cc1)NC(=O)[C@H](CC(=O)O)NC(=O)[C@H](CO)NC(=O)[C@@H](NC(=O)[C@H](Cc1ccccc1)NC(=O)[C@@H](NC(=O)CNC(=O)[C@H](CCC(N)=O)NC(=O)[C@H](CO)NC(=O)[C@@H](N)Cc1c[nH]cn1)[C@@H](C)O)[C@@H](C)O)[C@@H](C)O)C(C)C)C(=O)N[C@@H](CC(C)C)C(=O)N[C@@H](CO)C(=O)N[C@H](C(=O)O)[C@@H](C)O [Example 40, N^ε24-[2-[2-[2-[[(4S)-4-carboxy-4-[[(4S)-4-carboxy-4-[[2-[2-[2-[[(4S)-4-carboxy-4-(17-carboxyheptadecanoylamino)butanoyl]amino]ethoxy]ethoxy]acetyl]amino]butanoyl]amino]butanoyl]amino]ethoxy]ethoxy]acetyl]-[Thr16,Lys24,Leu27,Ser28]-Glucagon]
[1]
  EC50: 0.078 nM
[2]
  Chemical stability [Purity loss/14 days 37 C.]: 7.5%

## CC(C)C[C@H](NC(=O)[C@H](Cc1ccc(O)cc1)NC(=O)[C@H](CCCCN)NC(=O)[C@H](CO)NC(=O)[C@H](Cc1ccc(O)cc1)NC(=O)[C@H](CC(=O)O)NC(=O)[C@H](CO)NC(=O)[C@@H](NC(=O)[C@H](Cc1ccccc1)NC(=O)[C@@H](NC(=O)CNC(=O)[C@H](CCC(N)=O)NC(=O)[C@H](CO)NC(=O)[C@@H](N)Cc1c[nH]cn1)[C@@H](C)O)[C@@H](C)O)C(=O)N[C@@H](CC(=O)O)C(=O)N[C@@H](CCC(=O)O)C(=O)N[C@@H](CCCNC(=N)N)C(=O)N[C@@H](CCCNC(=N)N)C(=O)N[C@@H](C)C(=O)N[C@@H](CCC(N)=O)C(=O)N[C@@H](CC(=O)O)C(=O)N[C@@H](Cc1ccccc1)C(=O)N[C@H](C(=O)N[C@@H](CCCCNC(=O)CC[C@H](NC(=O)CC[C@H](NC(=O)COCCOCCNC(=O)COCCOCCNC(=O)CC[C@H](NC(=O)CCCCCCCCCCCCCCCCC(=O)O)C(=O)O)C(=O)O)C(=O)O)C(=O)N[C@@H](Cc1c[nH]c2ccccc12)C(=O)N[C@@H](CC(C)C)C(=O)N[C@@H](CC(C)C)C(=O)N[C@@H](CO)C(=O)N[C@H](C(=O)O)[C@@H](C)O)C(C)C [Example 41, N^ε24-[(4S)-4-carboxy-4-[[(4S)-4-carboxy-4-[[2-[2-[2-[[2-[2-[2-[[(4S)-4-carboxy-4-(17-carboxyheptadecanoylamino)butanoyl]amino]ethoxy]ethoxy]acetyl]amino]ethoxy]ethoxy]acetyl]amino]butanoyl]amino]butanoyl]-[Glu16,Lys24,Leu27,Ser28]-Glucagon]
[1]
  EC50: 0.13 nM
[2]
  Chemical stability [Purity loss/14 days 37 C.]: 7.3%

## CC(C)C[C@H](NC(=O)[C@H](Cc1ccc(O)cc1)NC(=O)[C@H](CCCNC(=N)N)NC(=O)[C@H](CO)NC(=O)[C@H](Cc1ccc(O)cc1)NC(=O)[C@H](CC(=O)O)NC(=O)[C@H](CO)NC(=O)[C@@H](NC(=O)[C@H](Cc1ccccc1)NC(=O)[C@@H](NC(=O)CNC(=O)[C@H](CCC(N)=O)NC(=O)[C@H](CO)NC(=O)[C@@H](N)Cc1c[nH]cn1)[C@@H](C)O)[C@@H](C)O)C(=O)N[C@@H](CC(=O)O)C(=O)N[C@@H](CCC(=O)O)C(=O)N[C@@H](CCCNC(=N)N)C(=O)N[C@@H](CCCNC(=N)N)C(=O)N[C@@H](C)C(=O)N[C@@H](CCC(N)=O)C(=O)N[C@@H](CC(=O)O)C(=O)N[C@@H](Cc1ccccc1)C(=O)N[C@H](C(=O)N[C@@H](CCCCNC(=O)CC[C@H](NC(=O)CC[C@H](NC(=O)COCCOCCNC(=O)COCCOCCNC(=O)CC[C@H](NC(=O)CCCCCCCCCCCCCCCCC(=O)O)C(=O)O)C(=O)O)C(=O)O)C(=O)N[C@@H](Cc1c[nH]c2ccccc12)C(=O)N[C@@H](CC(C)C)C(=O)N[C@@H](CC(C)C)C(=O)N[C@@H](CO)C(=O)N[C@H](C(=O)O)[C@@H](C)O)C(C)C [Example 42, N^ε24-[(4S)-4-carboxy-4-[[(4S)-4-carboxy-4-[[2-[2-[2-[[2-[2-[2-[[(4S)-4-carboxy-4-(17-carboxyheptadecanoylamino)butanoyl]amino]ethoxy]ethoxy]acetyl]amino]ethoxy]ethoxy]acetyl]amino]butanoyl]amino]butanoyl]-[Arg12,Glu16,Lys24,Leu27,Ser28]-Glucagon] (H-HSQGTFTSDYSRYLDERRAQDFVK([γGlu-γGlu-AEEA-AEEA-γGlu-C18 diacid])WLLST-OH)
[1]
  EC50: 0.153 nM
[2]
  Chemical stability [Purity loss/14 days 37 C.]: 7.2%
